Results: ChEMBL document CHEMBL1201862, “PubChem BioAssay data set” (2004)
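Briefly, cells in 96-well plates were exposed to five compound concentrations for 48 h, and endpoints were estimated by linear interpolation. GI50 is the concentration that inhibits growth by half.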 Activity calls are given as the source filed them. Cut-off read from the data, not from the text of the source: active = GI50 up to about 1.1 µM and inactive = higher.

Assays:
Test in all cases: growth of human tumour cells (NCI), 48 h
[1] = system: DLD-1
[2] = system: HOP-18
[3] = system: KM-20L2
[4] = system: RXF 631
[5] = system: XF498
[6] = system: DMS-114
[7] = system: DMS-273
[8] = system: M19-MEL
[9] = system: SNB-78

SMILES: Cc1ccc(S(=O)(=O)N/N=C/c2oc(-c3cccc([N+](=O)[O-])c3)c(-c3cccc([N+](=O)[O-])c3)c2[N+](=O)[O-])cc1
- GI50 [1]: 32.2 µM (inactive)
- GI50 [2]: > 100 µM (inactive)
- GI50 [3]: > 100 µM (inactive)
- GI50 [4]: 62.1 µM (inactive)
- GI50 [5]: > 100 µM (inactive)

SMILES: CC[n+]1c(/C=C/c2ccc(N(CCCl)CCCl)cc2)ccc2cc(I)ccc21
- GI50 [1]: 1.58 µM (inactive)
- GI50 [6]: 0.607 µM (active)
- GI50 [7]: 0.525 µM (active)
- GI50 [2]: 1.02 µM (active)
- GI50 [3]: 1.02 µM (active)
- GI50 [8]: 0.608 µM (active)
- GI50 [4]: 1.77 µM (inactive)
- GI50 [9]: 0.895 µM (active)

SMILES: COC1=C(OC)C(=O)c2cc(SC)c(=O)c(SC)cc2C1=O
- GI50 [1]: 28.4 µM (inactive)
- GI50 [6]: 3.4 µM (inactive)
- GI50 [7]: 25.5 µM (inactive)
- GI50 [2]: 20.2 µM (inactive)
- GI50 [3]: > 100 µM (inactive)
- GI50 [5]: 5.14 µM (inactive)

SMILES: O=P(Oc1ccc2ccccc2c1)(N1CC1)N1CC1
- GI50 [1]: 92.3 µM (inactive)
- GI50 [6]: 38.4 µM (inactive)
- GI50 [7]: 6.21 µM (inactive)
- GI50 [2]: 22.6 µM (inactive)
- GI50 [3]: > 100 µM (inactive)
- GI50 [8]: 13.5 µM (inactive)
- GI50 [9]: > 100 µM (inactive)
- GI50 [5]: 17.7 µM (inactive)

SMILES: CCOC(OCC)C(CC)[Se]c1ccccc1[N+](=O)[O-] (stereo unspecified)
- GI50 [1]: 3.1 µM (inactive)
- GI50 [7]: 1.01 µM (active)
- GI50 [2]: 11.8 µM (inactive)
- GI50 [3]: 1.96 µM (inactive)
- GI50 [8]: 4.42 µM (inactive)
- GI50 [9]: 7.76 µM (inactive)
- GI50 [5]: 2.92 µM (inactive)

SMILES: COc1ccc(C(O)/C(=N\NC(N)=S)c2nc3ccc([N+](=O)[O-])cc3nc2O)cc1OC (stereo unspecified)
- GI50 [1]: > 100 µM (inactive)
- GI50 [6]: 53.1 µM (inactive)
- GI50 [7]: > 100 µM (inactive)
- GI50 [2]: 44.2 µM (inactive)
- GI50 [3]: > 100 µM (inactive)
- GI50 [8]: > 100 µM (inactive)
- GI50 [4]: > 100 µM (inactive)
- GI50 [5]: > 100 µM (inactive)

SMILES: CCSC1=C(C)N(/C=N/C(C)(C)C)CC1
- GI50 [1]: > 100 µM (inactive)
- GI50 [6]: > 100 µM (inactive)
- GI50 [7]: > 100 µM (inactive)
- GI50 [2]: > 100 µM (inactive)
- GI50 [3]: > 100 µM (inactive)
- GI50 [8]: > 100 µM (inactive)
- GI50 [4]: > 100 µM (inactive)
- GI50 [9]: > 100 µM (inactive)
- GI50 [5]: > 100 µM (inactive)

SMILES: CCOC(=O)C1=C(c2ccccc2)N(C(C)=O)Cc2ccccc21
- GI50 [1]: 28.7 µM (inactive)
- GI50 [6]: 10.4 µM (inactive)
- GI50 [7]: 15.1 µM (inactive)
- GI50 [2]: 28.1 µM (inactive)
- GI50 [3]: 21.6 µM (inactive)
- GI50 [8]: 18.8 µM (inactive)
- GI50 [5]: 11.9 µM (inactive)

SMILES: O=C(/C=C\c1cccc2ccccc12)c1cccc2ccccc12
- GI50 [1]: 5.43 µM (inactive)
- GI50 [6]: 5.51 µM (inactive)
- GI50 [7]: 9.08 µM (inactive)
- GI50 [2]: > 10 µM (inactive)
- GI50 [3]: 9.55 µM (inactive)
- GI50 [8]: 11.4 µM (inactive)
- GI50 [4]: 7.89 µM (inactive)
- GI50 [9]: > 10 µM (inactive)
- GI50 [5]: 7.57 µM (inactive)

SMILES: CCN(CC)CCNC(=O)c1nn(C)c(=S)[nH]c1=S
- GI50 [1]: > 100 µM (inactive)
- GI50 [6]: > 100 µM (inactive)
- GI50 [7]: > 100 µM (inactive)
- GI50 [2]: > 100 µM (inactive)
- GI50 [3]: > 100 µM (inactive)
- GI50 [8]: > 100 µM (inactive)
- GI50 [9]: > 100 µM (inactive)
- GI50 [5]: > 100 µM (inactive)

SMILES: COC(=O)C1=C(C(=O)OC)C23CC4CCC2(C(=O)C1O3)C4(C)C (stereo unspecified)
- GI50 [1]: 57.1 µM (inactive)
- GI50 [2]: 95.9 µM (inactive)
- GI50 [3]: > 100 µM (inactive)
- GI50 [8]: > 100 µM (inactive)
- GI50 [5]: > 100 µM (inactive)

SMILES: O[C@]12c3ccccc3C1CCCCC2N1CCOCC1 (stereo partly specified)
- GI50 [6]: > 100 µM (inactive)
- GI50 [7]: > 100 µM (inactive)
- GI50 [2]: > 100 µM (inactive)
- GI50 [3]: > 100 µM (inactive)
- GI50 [8]: > 100 µM (inactive)
- GI50 [9]: > 100 µM (inactive)
- GI50 [5]: > 100 µM (inactive)

SMILES: CC1=N/C(=C\c2ccc([N+](=O)[O-])cc2)C(=O)O1
- GI50 [1]: > 100 µM (inactive)
- GI50 [6]: > 100 µM (inactive)
- GI50 [2]: > 100 µM (inactive)
- GI50 [3]: > 100 µM (inactive)
- GI50 [8]: > 100 µM (inactive)
- GI50 [4]: > 100 µM (inactive)
- GI50 [9]: > 100 µM (inactive)

SMILES: NC1c2ccccc2Nc2ccccc21
- GI50 [1]: 3.8 µM (inactive)
- GI50 [6]: 3.24 µM (inactive)
- GI50 [7]: 4.52 µM (inactive)
- GI50 [2]: 8.81 µM (inactive)
- GI50 [3]: 3.76 µM (inactive)
- GI50 [8]: 3.36 µM (inactive)
- GI50 [9]: 9.1 µM (inactive)
- GI50 [5]: 3.16 µM (inactive)

SMILES: CCCCCC/C=C/CCCCCCCc1cccc(O)c1C(=O)O
- GI50 [1]: 43.6 µM (inactive)
- GI50 [6]: > 100 µM (inactive)
- GI50 [7]: 34.9 µM (inactive)
- GI50 [2]: 48.4 µM (inactive)
- GI50 [3]: > 100 µM (inactive)
- GI50 [8]: > 100 µM (inactive)
- GI50 [4]: > 100 µM (inactive)
- GI50 [9]: > 100 µM (inactive)
- GI50 [5]: > 100 µM (inactive)

SMILES: O=C1C2=C(C(c3ccccc3)=C1c1ccccc1)c1ccccc1C1(c3ccccc3)C2=C(O)C(c2ccccc2)=C1c1ccccc1 (stereo unspecified)
- GI50 [1]: > 100 µM (inactive)
- GI50 [6]: > 100 µM (inactive)
- GI50 [7]: > 100 µM (inactive)
- GI50 [2]: > 100 µM (inactive)
- GI50 [3]: > 100 µM (inactive)
- GI50 [8]: > 100 µM (inactive)
- GI50 [4]: > 100 µM (inactive)
- GI50 [9]: > 100 µM (inactive)

SMILES: CCOC(=O)c1ccc(N2C(=O)/C(=C\OC)c3ccccc3C2=O)cc1
- GI50 [6]: 31.5 µM (inactive)
- GI50 [7]: 33.1 µM (inactive)
- GI50 [3]: 37 µM (inactive)
- GI50 [8]: 75.2 µM (inactive)
- GI50 [9]: 43.7 µM (inactive)

SMILES: COC(=O)C1CC2(CC3=C1CCCC3)OCCO2 (stereo unspecified)
- GI50 [1]: > 100 µM (inactive)
- GI50 [6]: > 100 µM (inactive)
- GI50 [7]: > 100 µM (inactive)
- GI50 [8]: > 100 µM (inactive)
- GI50 [4]: > 100 µM (inactive)
- GI50 [9]: > 100 µM (inactive)
- GI50 [5]: > 100 µM (inactive)

SMILES: On1c(-c2ccccc2)c(-c2c(-c3ccccc3)n(O)c3ccccc23)c2ccccc21
- GI50 [1]: 54.6 µM (inactive)
- GI50 [6]: 24.7 µM (inactive)
- GI50 [7]: 39.6 µM (inactive)
- GI50 [2]: 26.1 µM (inactive)
- GI50 [8]: 11.2 µM (inactive)
- GI50 [9]: 35.7 µM (inactive)
- GI50 [5]: 19.8 µM (inactive)

SMILES: CN(C)CC/C(=N\Nc1ccc([N+](=O)[O-])cc1)c1ccccc1
- GI50 [1]: 13.3 µM (inactive)
- GI50 [6]: 5.14 µM (inactive)
- GI50 [7]: 10.3 µM (inactive)
- GI50 [2]: 7.62 µM (inactive)
- GI50 [3]: 4.33 µM (inactive)
- GI50 [9]: 4.4 µM (inactive)

SMILES: CCOc1ccccc1NC(=O)C1=C(C)NC(C)=C(C(=O)Nc2ccccc2OCC)C1c1ccc(NC(C)=O)cc1
- GI50 [1]: 37 µM (inactive)
- GI50 [6]: 40.2 µM (inactive)
- GI50 [3]: 25.8 µM (inactive)
- GI50 [8]: 28.2 µM (inactive)
- GI50 [9]: 40.9 µM (inactive)
- GI50 [5]: 9.68 µM (inactive)

SMILES: CCCc1c(C(=O)OCC)[nH]c(-c2ccc(-c3[nH]c(C(=O)OCC)c(CCC)c3C(=O)OCC)s2)c1C(=O)OCC
- GI50 [1]: > 100 µM (inactive)
- GI50 [6]: 38.1 µM (inactive)
- GI50 [7]: 30.7 µM (inactive)
- GI50 [2]: > 100 µM (inactive)
- GI50 [3]: 72.1 µM (inactive)
- GI50 [8]: 52.8 µM (inactive)
- GI50 [9]: > 100 µM (inactive)
- GI50 [5]: 27.3 µM (inactive)

SMILES: N#Cc1c2c(c(N=P(c3ccccc3)(c3ccccc3)c3ccccc3)n3c1nc1ccccc13)CCCC2
- GI50 [1]: 32.8 µM (inactive)
- GI50 [6]: 21.5 µM (inactive)
- GI50 [7]: 14.5 µM (inactive)
- GI50 [2]: 25.9 µM (inactive)
- GI50 [3]: 17.4 µM (inactive)
- GI50 [8]: 18 µM (inactive)
- GI50 [4]: 29 µM (inactive)
- GI50 [9]: 21.3 µM (inactive)

SMILES: O=C1Oc2cc3c(c4cccc1c24)OCN(c1ccc(Cl)cc1)C3
- GI50 [1]: 5.42 µM (inactive)
- GI50 [6]: 5.9 µM (inactive)
- GI50 [7]: 0.423 µM (active)
- GI50 [2]: 34 µM (inactive)
- GI50 [8]: 14.4 µM (inactive)
- GI50 [9]: > 100 µM (inactive)
- GI50 [5]: 16.7 µM (inactive)

SMILES: N#CC(NNC(=O)c1ccccc1O)c1ccccc1 (stereo unspecified)
- GI50 [1]: 2.63 µM (inactive)
- GI50 [6]: 0.721 µM (active)
- GI50 [7]: 0.468 µM (active)
- GI50 [2]: 12.6 µM (inactive)
- GI50 [3]: 22 µM (inactive)
- GI50 [8]: 1.32 µM (inactive)
- GI50 [9]: 0.9 µM (active)

SMILES: ClCCCN1CCCCC1CCl (stereo unspecified)
- GI50 [1]: > 100 µM (inactive)
- GI50 [6]: 83 µM (inactive)
- GI50 [7]: 62.2 µM (inactive)
- GI50 [2]: > 100 µM (inactive)
- GI50 [3]: > 100 µM (inactive)
- GI50 [8]: > 100 µM (inactive)
